The subject of data set [1] is A549. Kind of data set: Induction of apoptosis in human A549 cells assessed as live cells at 40 uM measured after 48 hrs by Annexin V-FITC/propidium iodide staining based FACSClibur flow cytometry analysis (reference value: 95.5 %). The data set is classed as functional.
Data set [2] in a line: Clearance in Sprague-Dawley rat at 2 mg/kg, iv measured up to 24 hrs by LC-MS/MS analysis. The following applies: in vivo. The class given is ADME, organism-based.
Data set [3] is described as follows: Oral bioavailability in Sprague-Dawley rat at 20 mg/kg measured up to 24 hrs by LC-MS/MS analysis. The following applies: in vivo. The class given is ADME, organism-based.
The target in data set [4] is T1, Protein deacetylase HDAC6 (Homo sapiens, UniProt Q9UBN7).
T1 sequence (Q9UBN7 whole entry): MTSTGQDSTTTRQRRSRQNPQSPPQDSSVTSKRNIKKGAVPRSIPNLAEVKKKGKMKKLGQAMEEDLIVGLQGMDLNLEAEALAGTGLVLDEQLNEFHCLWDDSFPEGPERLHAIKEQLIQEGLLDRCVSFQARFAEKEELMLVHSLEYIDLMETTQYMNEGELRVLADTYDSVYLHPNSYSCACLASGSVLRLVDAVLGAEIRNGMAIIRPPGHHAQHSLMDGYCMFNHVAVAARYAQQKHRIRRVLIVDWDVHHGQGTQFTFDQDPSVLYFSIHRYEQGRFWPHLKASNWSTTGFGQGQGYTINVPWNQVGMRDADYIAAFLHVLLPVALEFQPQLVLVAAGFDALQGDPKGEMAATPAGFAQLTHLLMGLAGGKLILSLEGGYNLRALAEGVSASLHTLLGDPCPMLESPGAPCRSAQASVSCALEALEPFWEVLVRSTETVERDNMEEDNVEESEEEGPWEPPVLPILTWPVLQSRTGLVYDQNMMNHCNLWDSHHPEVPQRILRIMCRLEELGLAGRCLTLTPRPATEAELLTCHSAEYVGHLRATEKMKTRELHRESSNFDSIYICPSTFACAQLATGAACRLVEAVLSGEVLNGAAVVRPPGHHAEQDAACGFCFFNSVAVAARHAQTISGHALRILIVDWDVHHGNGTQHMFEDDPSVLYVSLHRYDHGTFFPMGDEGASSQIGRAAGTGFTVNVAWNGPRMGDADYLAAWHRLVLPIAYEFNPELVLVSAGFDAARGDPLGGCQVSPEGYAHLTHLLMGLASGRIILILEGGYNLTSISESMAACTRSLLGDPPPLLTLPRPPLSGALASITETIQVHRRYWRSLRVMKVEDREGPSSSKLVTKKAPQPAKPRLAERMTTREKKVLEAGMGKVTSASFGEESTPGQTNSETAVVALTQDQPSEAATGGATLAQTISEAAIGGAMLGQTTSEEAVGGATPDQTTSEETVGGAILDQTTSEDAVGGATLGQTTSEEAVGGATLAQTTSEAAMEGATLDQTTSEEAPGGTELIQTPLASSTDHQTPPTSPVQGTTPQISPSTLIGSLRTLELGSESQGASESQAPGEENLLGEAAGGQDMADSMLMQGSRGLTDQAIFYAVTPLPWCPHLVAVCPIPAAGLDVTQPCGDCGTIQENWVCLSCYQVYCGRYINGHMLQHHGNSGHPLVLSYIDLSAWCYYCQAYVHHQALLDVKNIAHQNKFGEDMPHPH
The data set can be described thus: Inhibition of HDAC6 (unknown origin) using Boc-Lys(Ac)-pNA as substrate preincubated for 20 mins followed by substrate addition and further incubated for 90 mins by fluorescence assay.

Data set [5] concerns MCF-10A. Kind of data set: Cytotoxicity against human MCF10A cells assessed as reduction in cell growth measured after 48 hrs by CCK8 assay. The class given is cell-based.

As for `O=C(C[C@@H](CC1CCCC1)C(=O)N1CC2(CC2)C[C@H]1c1nc(-c2ccc(F)cc2C(F)(F)F)no1)NO`, in data set [1], the Activity worked out at 80.9%. For the same compound, the CL in data set [2] amounted to 444.7 mL/min/kg. In data set [3], this compound registered an F of 23.5%. Also, the IC50 in data set [4] was greater than 10 µM; in data set [5], 18.1 µM.

The record behind these values is ChEMBL document CHEMBL4616720 (J Med Chem, 2020).
